US20080009418A1, “Selective Inhibitors” (Alchemia LTD., priority 2004, published 2008)

Key:
Human δ-opioid (DOP) = molecular target: T1, Human δ-opioid (DOP) (Homo sapiens, UniProt P41143); assay: Radioligand binding, human δ-opioid (DOP) membranes, FlashPlate, [3H]-Bremazocine; settings: compound at 10 μM, [3H]-Bremazocine
T1 construct: purchased Perkin Elmer Biosignal
Outline: (§1)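 Cloned human receptor membranes were coated onto FlashPlate wells and incubated with radioligand and compound (added from a 0.5 mM DMSO daughter plate) for 1 hour at room temperature in the dark. Scintillation counting gave percent inhibition, with DMSO defining total and reference ligand defining non-specific binding.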

Human κ-Opioid (KOP) = molecular target: T2, Human κ-Opioid (KOP) (Homo sapiens, UniProt P41145); assay: Radioligand binding, human κ-opioid (KOP) membranes, filtration, [3H]-Diprenorphine; settings: compound at 10 μM, [3H]-Diprenorphine
T2 construct: purchased Perkin Elmer Biosignal
T2 sequence (P41145 whole entry): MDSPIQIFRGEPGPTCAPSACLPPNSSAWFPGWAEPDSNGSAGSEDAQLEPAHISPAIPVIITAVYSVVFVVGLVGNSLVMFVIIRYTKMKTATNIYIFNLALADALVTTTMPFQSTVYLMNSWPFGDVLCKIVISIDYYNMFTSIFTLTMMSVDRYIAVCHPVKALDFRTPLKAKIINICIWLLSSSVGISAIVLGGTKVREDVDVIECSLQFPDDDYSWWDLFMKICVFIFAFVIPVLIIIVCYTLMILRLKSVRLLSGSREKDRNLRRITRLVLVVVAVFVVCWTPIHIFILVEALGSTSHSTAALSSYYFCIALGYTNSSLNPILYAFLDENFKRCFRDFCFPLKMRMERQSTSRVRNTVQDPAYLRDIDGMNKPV
Outline: (§2)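 Membranes from cloned human receptors were incubated with compound and radioligand for 1 hour at room temperature. Bound ligand was collected on 0.3% PEI-soaked filters, washed with cold 50 mM Tris-HCl pH 7.4, and counted by scintillation. Percent inhibition was computed against DMSO totals and reference-ligand nonspecific wells.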

Human Melanocortin (MC3) = molecular target: T3, Human Melanocortin (MC3) (Homo sapiens, UniProt P41968); assay: Radioligand binding, human melanocortin MC3 membranes, FlashPlate, [125I]-NDP-αMSH; settings: compound at 10 μM, [125I]-NDP-αMSH
T3 construct: purchased Perkin Elmer Biosignal
T3 sequence (P41968 whole entry): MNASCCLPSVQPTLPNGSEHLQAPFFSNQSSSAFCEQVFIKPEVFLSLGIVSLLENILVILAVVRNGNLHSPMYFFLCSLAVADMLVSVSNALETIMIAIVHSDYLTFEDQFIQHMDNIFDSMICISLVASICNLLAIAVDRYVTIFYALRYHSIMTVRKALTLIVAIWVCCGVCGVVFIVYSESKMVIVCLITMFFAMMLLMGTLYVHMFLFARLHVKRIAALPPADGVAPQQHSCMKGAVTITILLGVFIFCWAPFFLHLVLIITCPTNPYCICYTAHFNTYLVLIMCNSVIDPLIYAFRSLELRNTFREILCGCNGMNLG
Outline: as §1

Human Melanocortin (MC4) = molecular target: T4, Human Melanocortin (MC4) (Homo sapiens, UniProt P32245); assay: Radioligand binding, human melanocortin MC4 membranes, FlashPlate, [125I]-NDP-αMSH; settings: compound at 10 μM, [125I]-NDP-αMSH
T4 construct: purchased Perkin Elmer Biosignal
T4 sequence (P32245 whole entry): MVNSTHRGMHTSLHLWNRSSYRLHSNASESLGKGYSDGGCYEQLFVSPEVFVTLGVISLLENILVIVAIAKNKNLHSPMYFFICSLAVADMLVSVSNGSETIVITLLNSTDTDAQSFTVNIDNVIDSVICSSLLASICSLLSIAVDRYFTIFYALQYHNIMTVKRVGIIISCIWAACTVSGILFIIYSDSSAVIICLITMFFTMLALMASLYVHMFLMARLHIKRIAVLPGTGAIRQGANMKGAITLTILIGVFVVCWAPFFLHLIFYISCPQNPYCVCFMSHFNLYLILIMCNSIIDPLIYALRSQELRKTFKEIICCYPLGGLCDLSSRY
Outline: as §1

Human melanocortin (MC5) = molecular target: T5, Human melanocortin (MC5) (Homo sapiens, UniProt P33032); assay: Radioligand binding, human melanocortin MC5 membranes, FlashPlate, [125I]-NDP-αMSH; settings: compound at 10 μM, [125I]-NDP-αMSH
T5 construct: purchased Perkin Elmer Biosignal
T5 sequence (P33032 whole entry): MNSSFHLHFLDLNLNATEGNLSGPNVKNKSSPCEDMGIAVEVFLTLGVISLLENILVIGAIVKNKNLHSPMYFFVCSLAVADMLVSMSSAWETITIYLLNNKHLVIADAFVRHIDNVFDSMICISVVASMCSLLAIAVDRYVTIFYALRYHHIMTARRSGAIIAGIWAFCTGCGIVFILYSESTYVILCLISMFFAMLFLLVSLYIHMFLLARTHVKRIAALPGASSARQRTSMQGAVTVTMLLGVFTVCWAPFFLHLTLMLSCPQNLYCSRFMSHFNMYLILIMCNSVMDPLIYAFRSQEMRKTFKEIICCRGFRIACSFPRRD
Outline: as §1

[1] = molecular target: T6, Human melanin-concentrating hormone (MCH1) (Homo sapiens, UniProt Q99705); assay: Radioligand binding, human melanin-concentrating hormone MCH1 membranes, FlashPlate, [125I]-S36057; settings: compound at 10 μM
T6 construct: purchased Perkin Elmer Biosignal
T6 sequence (Q99705 whole entry): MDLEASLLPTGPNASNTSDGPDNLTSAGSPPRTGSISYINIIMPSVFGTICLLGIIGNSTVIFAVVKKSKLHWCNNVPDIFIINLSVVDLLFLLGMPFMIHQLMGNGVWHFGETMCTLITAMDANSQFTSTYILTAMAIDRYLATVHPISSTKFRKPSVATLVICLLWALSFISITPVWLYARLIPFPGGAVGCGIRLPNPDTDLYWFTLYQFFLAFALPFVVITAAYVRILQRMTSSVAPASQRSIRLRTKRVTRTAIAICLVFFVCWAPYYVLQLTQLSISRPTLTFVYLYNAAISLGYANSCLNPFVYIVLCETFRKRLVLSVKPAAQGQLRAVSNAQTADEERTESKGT
Outline: as §1

Human μ-opioid (MOP) = molecular target: T7, Human μ-opioid (MOP) (Homo sapiens, UniProt P35372); assay: Radioligand binding, human μ-opioid (MOP) membranes, FlashPlate, [3H]-Naloxone; settings: compound at 10 μM, [3H]-Naloxone
T7 construct: purchased Perkin Elmer Biosignal
T7 sequence (P35372 whole entry): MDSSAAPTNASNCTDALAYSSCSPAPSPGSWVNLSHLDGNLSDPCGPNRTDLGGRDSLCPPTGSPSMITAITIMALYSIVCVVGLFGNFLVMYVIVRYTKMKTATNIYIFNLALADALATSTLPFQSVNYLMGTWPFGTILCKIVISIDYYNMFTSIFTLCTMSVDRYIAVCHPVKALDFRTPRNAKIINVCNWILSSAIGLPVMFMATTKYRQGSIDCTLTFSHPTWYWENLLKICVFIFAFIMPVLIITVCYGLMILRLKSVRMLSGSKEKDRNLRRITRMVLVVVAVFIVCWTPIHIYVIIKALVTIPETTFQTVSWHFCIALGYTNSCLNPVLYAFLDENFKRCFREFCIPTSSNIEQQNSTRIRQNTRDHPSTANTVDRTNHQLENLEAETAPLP
Outline: as §1

Human neurokinin (NK1) = molecular target: T8, Human neurokinin (NK1) (Homo sapiens, UniProt P25103); assay: Radioligand binding, human neurokinin NK1 membranes, filtration, [125I]-Substance P; settings: compound at 10 μM, [125I]-Substance P
T8 construct: purchased Perkin Elmer Biosignal
T8 sequence (P25103 whole entry): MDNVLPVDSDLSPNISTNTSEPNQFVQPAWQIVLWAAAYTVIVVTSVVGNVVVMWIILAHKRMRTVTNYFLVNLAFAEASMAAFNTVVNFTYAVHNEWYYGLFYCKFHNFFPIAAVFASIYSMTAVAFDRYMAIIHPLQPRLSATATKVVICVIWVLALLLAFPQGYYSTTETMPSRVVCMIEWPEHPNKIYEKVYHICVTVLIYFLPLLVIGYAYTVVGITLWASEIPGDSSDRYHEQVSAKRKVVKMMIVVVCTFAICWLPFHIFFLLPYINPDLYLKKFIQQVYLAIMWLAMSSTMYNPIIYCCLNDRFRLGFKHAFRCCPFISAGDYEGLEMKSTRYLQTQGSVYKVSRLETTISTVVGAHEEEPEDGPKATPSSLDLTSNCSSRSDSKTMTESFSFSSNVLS
Outline: as §2

[2] = molecular target: T9, Human neuropeptide Y (NPY-Y1) (Homo sapiens, UniProt P25929); assay: Radioligand binding, human neuropeptide Y NPY-Y1 membranes, FlashPlate, [125I]-PYY; settings: compound at 10 μM, [125I]-PYY
T9 construct: purchased Perkin Elmer Biosignal
T9 sequence (P25929 1-384): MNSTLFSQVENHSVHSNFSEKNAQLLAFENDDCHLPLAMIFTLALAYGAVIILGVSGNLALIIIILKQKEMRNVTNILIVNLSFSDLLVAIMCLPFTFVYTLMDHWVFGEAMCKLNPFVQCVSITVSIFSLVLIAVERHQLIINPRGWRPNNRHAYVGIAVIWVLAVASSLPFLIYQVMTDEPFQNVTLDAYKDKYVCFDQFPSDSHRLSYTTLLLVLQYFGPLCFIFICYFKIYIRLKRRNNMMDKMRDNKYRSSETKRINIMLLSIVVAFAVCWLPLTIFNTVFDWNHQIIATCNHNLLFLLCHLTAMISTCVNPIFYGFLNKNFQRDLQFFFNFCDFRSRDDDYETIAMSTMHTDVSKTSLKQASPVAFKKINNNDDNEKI
Outline: as §1

Human opioid (ORL1) = molecular target: T10, Human opioid (ORL1) (Homo sapiens, UniProt P41146); assay: Radioligand binding, human opioid ORL1 membranes, FlashPlate, [125I]-Nociceptin; settings: compound at 10 μM, [125I]-Nociceptin
T10 construct: purchased Perkin Elmer Biosignal
T10 sequence (P41146 whole entry): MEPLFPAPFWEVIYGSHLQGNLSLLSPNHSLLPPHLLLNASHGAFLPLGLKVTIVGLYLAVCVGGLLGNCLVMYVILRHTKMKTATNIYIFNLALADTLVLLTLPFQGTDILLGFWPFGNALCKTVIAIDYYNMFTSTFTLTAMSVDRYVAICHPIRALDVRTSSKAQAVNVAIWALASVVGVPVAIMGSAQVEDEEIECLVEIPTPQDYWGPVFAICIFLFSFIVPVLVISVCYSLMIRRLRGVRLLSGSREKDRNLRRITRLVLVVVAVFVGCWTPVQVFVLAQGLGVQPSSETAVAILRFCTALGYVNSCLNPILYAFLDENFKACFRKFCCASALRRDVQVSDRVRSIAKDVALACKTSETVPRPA
Outline: as §1

Mouse urotensin (mUR2) = molecular target: T11, Mouse urotensin (mUR2) (Mus musculus, UniProt Q8VIH9); assay: Radioligand binding, mouse urotensin mUR2 membranes, FlashPlate, [125I]-Urotensin II; settings: compound at 10 μM, [125I]-Urotensin II
T11 construct: purchased Perkin Elmer Biosignal
T11 sequence (Q8VIH9 1-385): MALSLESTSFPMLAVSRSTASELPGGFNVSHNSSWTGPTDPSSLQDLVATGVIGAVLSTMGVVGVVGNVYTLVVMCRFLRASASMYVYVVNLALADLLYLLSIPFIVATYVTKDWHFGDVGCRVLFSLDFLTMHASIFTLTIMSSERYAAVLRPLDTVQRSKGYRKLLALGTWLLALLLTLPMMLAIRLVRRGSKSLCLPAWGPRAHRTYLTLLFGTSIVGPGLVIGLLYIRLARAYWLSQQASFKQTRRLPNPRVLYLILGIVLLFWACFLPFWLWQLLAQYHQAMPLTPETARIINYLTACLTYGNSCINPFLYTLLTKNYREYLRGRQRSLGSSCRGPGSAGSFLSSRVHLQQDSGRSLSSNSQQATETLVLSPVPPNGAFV
Outline: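 Cloned mouse urotensin (mUR2) receptor membranes from Perkin Elmer Biosignal were immobilized in FlashPlate microplates using a proprietary coating. Each well got 19.5 μl buffer, then 0.5 μl of DMSO, reference ligand, or compound. Adding 5 μl of [125I]-Urotensin II, diluted to 5× final concentration in binding buffer, started binding. Plates were sealed with TopSeal-A and incubated 1 hour at room temperature in the dark. Wells were counted for 30 seconds each on a TopCount after a 60-second delay, and percentage inhibition was calculated.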

T1 sequence (P41143 whole entry): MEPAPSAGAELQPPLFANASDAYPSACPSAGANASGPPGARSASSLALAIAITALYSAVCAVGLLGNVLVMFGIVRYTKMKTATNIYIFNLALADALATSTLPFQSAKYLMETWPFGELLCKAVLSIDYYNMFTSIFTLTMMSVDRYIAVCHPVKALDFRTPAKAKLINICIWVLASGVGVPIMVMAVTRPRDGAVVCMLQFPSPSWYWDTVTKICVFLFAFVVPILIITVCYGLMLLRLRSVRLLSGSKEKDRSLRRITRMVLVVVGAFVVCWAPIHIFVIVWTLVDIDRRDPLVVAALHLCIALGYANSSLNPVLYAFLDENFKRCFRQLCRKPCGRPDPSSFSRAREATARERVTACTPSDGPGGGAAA

CO[C@H]1[C@H](O)[C@@H](COCc2ccc(Cl)cc2)OC(OCCc2ccccc2)[C@@H]1NC(=O)CCCNC(=N)N (stereo partly shown) [compound 122]
A1 radioligand binding, percentage inhibition (Human δ-opioid (DOP)): − (“−” indicates less than 50% inhibition at 10 μM) | A2 radioligand binding, percentage inhibition (Human κ-Opioid (KOP)): − (“−” indicates less than 50% inhibition at 10 μM) | A3 radioligand binding, percentage inhibition (Human Melanocortin (MC3)): − (“−” indicates less than 50% inhibition at 10 μM) | A4 radioligand binding, percentage inhibition (Human Melanocortin (MC4)): + (“+” indicates greater than 50% inhibition at 10 μM) | A5 radioligand binding, percentage inhibition (Human melanocortin (MC5)): + (“+” indicates greater than 50% inhibition at 10 μM) | A6 radioligand binding, percentage inhibition ([1]; [125I]-S36057): − (“−” indicates less than 50% inhibition at 10 μM) | A7 radioligand binding, percentage inhibition (Human μ-opioid (MOP)): − (“−” indicates less than 50% inhibition at 10 μM) | A8 radioligand binding, percentage inhibition (Human neurokinin (NK1)): + (“+” indicates greater than 50% inhibition at 10 μM) | A9 radioligand binding, percentage inhibition [2]: − (“−” indicates less than 50% inhibition at 10 μM) | A10 radioligand binding, percentage inhibition (Human opioid (ORL1)): − (“−” indicates less than 50% inhibition at 10 μM) | A11 radioligand binding, percentage inhibition (Mouse urotensin (mUR2)): − (“−” indicates less than 50% inhibition at 10 μM)

NCCCC(=O)NC1C(OCc2ccc3ccccc3c2)OC(COCc2ccccc2)C(O)C1OCc1ccc2ccccc2c1 (stereo not shown) [compound 394]
A1: inhibition of radioligand binding (Human δ-opioid (DOP); human DOP membranes): − (“−” indicates less than 50% inhibition at 10 μM) | A2: inhibition of radioligand binding (Human κ-Opioid (KOP); human KOP membranes): − (“−” indicates less than 50% inhibition at 10 μM) | A3: inhibition of radioligand binding (Human Melanocortin (MC3); human MC3 membranes, 10 µM): + (“+” indicates greater than 50% inhibition at 10 μM) | A4: inhibition of radioligand binding (Human Melanocortin (MC4); human MC4 membranes, 10 µM): + (“+” indicates greater than 50% inhibition at 10 μM) | A5: inhibition of radioligand binding (Human melanocortin (MC5); human MC5 membranes): + (“+” indicates greater than 50% inhibition at 10 μM) | A6: inhibition of radioligand binding ([1]; [125I]-S36057, human MCH1 membranes): − (“−” indicates less than 50% inhibition at 10 μM) | A7: inhibition of radioligand binding (Human μ-opioid (MOP); human MOP membranes): − (“−” indicates less than 50% inhibition at 10 μM) | A8: inhibition of radioligand binding (Human neurokinin (NK1); human NK1 membranes): + (“+” indicates greater than 50% inhibition at 10 μM) | A9: inhibition of radioligand binding ([2]; human NPY-Y1 membranes): − (“−” indicates less than 50% inhibition at 10 μM) | A10: inhibition of radioligand binding (Human opioid (ORL1); human ORL1 membranes, 10 µM): − (“−” indicates less than 50% inhibition at 10 μM) | A11: inhibition of radioligand binding (Mouse urotensin (mUR2); mouse mUR2 membranes): − (“−” indicates less than 50% inhibition at 10 μM)

CO[C@H]1[C@H](O)[C@@H](COCc2ccc3ccccc3c2)OC(OCCc2ccccc2)[C@@H]1NC(=O)CNC(=N)N (stereo partly shown) [compound 113]
A1 radioligand binding, percentage inhibition (Human δ-opioid (DOP)): − (“−” indicates less than 50% inhibition at 10 μM) | A2 radioligand binding, percentage inhibition (Human κ-Opioid (KOP)): − (“−” indicates less than 50% inhibition at 10 μM) | A3 radioligand binding, percentage inhibition (Human Melanocortin (MC3)): − (“−” indicates less than 50% inhibition at 10 μM) | A4 radioligand binding, percentage inhibition (Human Melanocortin (MC4)): + (“+” indicates greater than 50% inhibition at 10 μM) | A5 radioligand binding, percentage inhibition (Human melanocortin (MC5)): + (“+” indicates greater than 50% inhibition at 10 μM) | A6 radioligand binding, percentage inhibition ([1]; [125I]-S36057): − (“−” indicates less than 50% inhibition at 10 μM) | A7 radioligand binding, percentage inhibition (Human μ-opioid (MOP)): − (“−” indicates less than 50% inhibition at 10 μM) | A8 radioligand binding, percentage inhibition (Human neurokinin (NK1)): + (“+” indicates greater than 50% inhibition at 10 μM) | A9 radioligand binding, percentage inhibition [2]: − (“−” indicates less than 50% inhibition at 10 μM) | A10 radioligand binding, percentage inhibition (Human opioid (ORL1)): + (“+” indicates greater than 50% inhibition at 10 μM) | A11 radioligand binding, percentage inhibition (Mouse urotensin (mUR2)): − (“−” indicates less than 50% inhibition at 10 μM)

COCC1OC(OCc2ccc3ccccc3c2)C(NC(=O)CCN)C(OCc2ccc3ccccc3c2)C1O (stereo not shown) [compound 546]
A1: inhibition of radioligand binding, human δ-opioid (DOP) (Human δ-opioid (DOP)): − (“−” indicates less than 50% inhibition at 10 μM) | A2: inhibition of radioligand binding, human κ-opioid (KOP) (Human κ-Opioid (KOP)): − (“−” indicates less than 50% inhibition at 10 μM) | A3: inhibition of radioligand binding, human melanocortin (MC3) (Human Melanocortin (MC3)): − (“−” indicates less than 50% inhibition at 10 μM) | A4: inhibition of radioligand binding, human melanocortin (MC4) (Human Melanocortin (MC4)): − (“−” indicates less than 50% inhibition at 10 μM) | A5: inhibition of radioligand binding, human melanocortin (MC5) (Human melanocortin (MC5); 10 µM): + (“+” indicates greater than 50% inhibition at 10 μM) | A6: inhibition of radioligand binding, human melanin-concentrating hormone (MCH1) ([1]; [125I]-S36057): − (“−” indicates less than 50% inhibition at 10 μM) | A7: inhibition of radioligand binding, human μ-opioid (MOP) (Human μ-opioid (MOP)): − (“−” indicates less than 50% inhibition at 10 μM) | A8: inhibition of radioligand binding, human neurokinin (NK1) (Human neurokinin (NK1); 10 µM): − (“−” indicates less than 50% inhibition at 10 μM) | A9: inhibition of radioligand binding, human neuropeptide Y (NPY-Y1) [2]: − (“−” indicates less than 50% inhibition at 10 μM) | A10: inhibition of radioligand binding, human opioid (ORL1) (Human opioid (ORL1)): − (“−” indicates less than 50% inhibition at 10 μM) | A11: inhibition of radioligand binding, mouse urotensin (mUR2) (Mouse urotensin (mUR2)): − (“−” indicates less than 50% inhibition at 10 μM)

COCC1OC(OCc2ccc(Cl)cc2)C(NC(=O)CNC(=N)N)C(OCc2ccccc2)C1O (stereo not shown) [compound 194]
A1: inhibition of radioligand binding (Human δ-opioid (DOP); FlashPlate): − (“−” indicates less than 50% inhibition at 10 μM) | A2: inhibition of radioligand binding (Human κ-Opioid (KOP); filtration): − (“−” indicates less than 50% inhibition at 10 μM) | A3: inhibition of radioligand binding (Human Melanocortin (MC3); FlashPlate): − (“−” indicates less than 50% inhibition at 10 μM) | A4: inhibition of radioligand binding (Human Melanocortin (MC4); FlashPlate): + (“+” indicates greater than 50% inhibition at 10 μM) | A5: inhibition of radioligand binding (Human melanocortin (MC5); FlashPlate): + (“+” indicates greater than 50% inhibition at 10 μM) | A6: inhibition of radioligand binding ([1]; [125I]-S36057, FlashPlate): − (“−” indicates less than 50% inhibition at 10 μM) | A7: inhibition of radioligand binding (Human μ-opioid (MOP); FlashPlate): − (“−” indicates less than 50% inhibition at 10 μM) | A8: inhibition of radioligand binding (Human neurokinin (NK1); filtration): + (“+” indicates greater than 50% inhibition at 10 μM) | A9: inhibition of radioligand binding ([2]; FlashPlate): − (“−” indicates less than 50% inhibition at 10 μM) | A10: inhibition of radioligand binding (Human opioid (ORL1); FlashPlate): − (“−” indicates less than 50% inhibition at 10 μM) | A11: inhibition of radioligand binding (Mouse urotensin (mUR2); FlashPlate): − (“−” indicates less than 50% inhibition at 10 μM)
